Experiment [1] is described as follows: DPPH radical scavenging activity. The conditions noted are these: 10 minutes reaction, absorbance 517 nm; Table 7. As to the method: 4 mM of DPPH solution in ethanol was prepared and used after the absorbance was adjusted to 1.000±0.1. 0.2 mL of each sample was added to a test tube, 2.8 mL of DPPH solution was mixed and allowed to react for 10 minutes, and the absorbance was measured at 517 nm by using a microplate reader (M2, Molecular Device, Canada). L-ascorbic acid was used as a positive control. The DPPH radical scavenging activity was calculated from the following formula: DPPH radical scavenging activity (%)=[1−(A/B)]×100 • (A: absorbance of a group with addition of sample, B: absorbance of a group without addition of sample)
In general terms: Loss of DPPH colour is used to gauge radical scavenging.

Experiment [2] is described as follows: Oxidation stability of lipid by Rancimat method. The conditions noted are these: fish oil containing 2% of the polyphenol composition, 100° C., Table 9; for IP (min) induction period: air 20 L/hr; for AI Antioxidative Index: relative to lipid without composition. As to the method: Oxidation stability of lipid was analyzed by using the Rancimat (743 Metrohm Co., Herisau, Switzerland) method. 2.5 g of fish oil [Sigma-Aldrich Co. (St. Louis. MO, USA)] containing 2% of the polyphenol composition was put into a reaction vessel, and air was put at 20 L/hr into lipid on an aluminum heating block controlled at 100° C. to oxidize lipid. The volatile oxidation products generated during this time were transferred to an absorption vessel containing 60 mL of distilled water, and the degree of anti-oxidation was determined through the induction period automatically calculated in accordance with the change of electrical conductivity. For comparison of antioxidative activity, the Antioxidative Index (AI) was calculated by using a lipid sample with no addition of the polyphenol composition as a control group from the following formula: Further, L-ascorbic acid was used as a positive control. Antioxidative Index (AI)=IG/IC (IG: […])

For another experiment, the system named is polyphenol oxidase (PPO). Nature of the experiment: Polyphenol oxidase (PPO) inhibitory activity. The experiment is classed as biochemical. The note with it: pH 6.5, 25° C., catechin substrate, absorbance 420 nm; Table 11. As to the method:
1.7 mL of 50 mM phosphate buffer (pH 6.5) and 0.2 mL of PPO (4,276 units/mg) were mixed, and 0.1 mL of each polyphenol composition was added, and the mixture was left in a constant temperature water bath controlled at 25° C. for 15 minutes, and 1 mL of 4 mM catechin solution was added thereto as a substrate, respectively. Then, a change in absorbance for 5 minutes at 420 nm was measured by using a microplate reader (M2, Molecular Device, Canada). The enzyme inhibitory activity was expressed as absorbance reduction (%) represented by the following formula: Inhibition of PPO activity (%)=[1−(A/B)]×100 • [A: absorbance of sample, B: absorbance of blank solution]

Experiment [3] is described as follows: Trimethylamine (TMA) reducing effect, SPME-GC/MS. The note with it: TMA 100 ppm standard aqueous solution; compositions T1-T6, 50 ppm of each polyphenol. As for the experimental part: 30% concentration product of trimethylamine was purchased from Duksan Chemistry (Ansan, Republic of Korea) and used in the experiment. To determine the TMA-reducing effect, the standard reagent of 30% trimethylamine was diluted with distilled water to 100 ppm to prepare a standard aqueous solution. The prepared standard aqueous solution was used as a solvent to prepare a test polyphenol composition, and a trimethylamine-containing polyphenol composition sample was prepared and used for GC/MS analysis. The trimethylamine (TMA) component was determined from the polyphenol composition through the following method. […] The amount of TMA in the composition was calculated by comparing the peak area of 1.0 g of the sample and 1 g of 100 mg/L of TMA relative to each other and performing the comparative relative quantification of the contents of volatile aroma components in the sample. To determine the superiority of the combination of chlorogenic acid, caffeic acid, and quinic acid, the TMA reducing effect, which is known to be an effect of polyphenols, was evaluated. Specifically, the trimethylamine (TMA)-reducing effect was evaluated through the method of Experimental example 2 for each polyphenol composition prepared in Experimental example 1-2. […]

Marks after values point to notes of the source that are not given here.

Regarding `O=C1O[C@H]([C@@H](O)CO)C(O)=C1O` [(+) control, L-ascorbic acid, reference compound], in experiment [1], the “DPPH (%) radical scavenging activity” value is on record as 81.07 ± 0.59^a %. In addition, in experiment [2], the “IP (min) induction period” value is 90.53 ± 1.37^c min and the “AI Antioxidative Index” value is given as 1.22 ± 0.03^c. In the experiment on polyphenol oxidase (PPO), the “PPO (%) inhibition of PPO activity” value is on record as 22.86 ± 0.70^a %.

Take `O=C(O)[C@]1(O)C[C@@H](O)[C@@H](O)[C@H](O)C1` [Composition T3, Quinic acid]: the “Reduction (%) of trimethylamine (TMA)” value in experiment [3] is 57.66%. In addition, the “DPPH (%) radical scavenging activity” value in experiment [1] was 0.60 ± 1.04^e %. Also, in experiment [2], the “IP (min) induction period” value was 77.23 ± 1.05^e min and the “AI Antioxidative Index” value was 1.04 ± 0.01^e. Further, the “PPO (%) inhibition of PPO activity” value in the experiment with polyphenol oxidase (PPO) is 19.47 ± 0.75^c %.

The values above are taken from patent US12660840B2, “Composition containing polyphenol” (CJ CHEILJEDANG CORPORATION, priority 2019, dated 2026).
